The values below are quoted from earlier work in patent publication US8609359B2, “Methods for determining the concentration of gamma-hydroxy butyric acid (GHB) in a sample” (Bühlmann Laboratories AG, priority 2009, dated 2013).

In one data set the test system is GHB receptor. The following applies: for GHB-appropriate responding: animals.
The target in a further data set is GABAB receptor (Homo sapiens, UniProt Q9UBS5).
The conditions of data set [1]: effects can resolve quite suddenly.
For data set [2] the following is noted: when consumed with food.
For data set [3] the following is noted: in 1 ml of water.

Chain of GABAB receptor (Q9UBS5 15-961 limits assumed): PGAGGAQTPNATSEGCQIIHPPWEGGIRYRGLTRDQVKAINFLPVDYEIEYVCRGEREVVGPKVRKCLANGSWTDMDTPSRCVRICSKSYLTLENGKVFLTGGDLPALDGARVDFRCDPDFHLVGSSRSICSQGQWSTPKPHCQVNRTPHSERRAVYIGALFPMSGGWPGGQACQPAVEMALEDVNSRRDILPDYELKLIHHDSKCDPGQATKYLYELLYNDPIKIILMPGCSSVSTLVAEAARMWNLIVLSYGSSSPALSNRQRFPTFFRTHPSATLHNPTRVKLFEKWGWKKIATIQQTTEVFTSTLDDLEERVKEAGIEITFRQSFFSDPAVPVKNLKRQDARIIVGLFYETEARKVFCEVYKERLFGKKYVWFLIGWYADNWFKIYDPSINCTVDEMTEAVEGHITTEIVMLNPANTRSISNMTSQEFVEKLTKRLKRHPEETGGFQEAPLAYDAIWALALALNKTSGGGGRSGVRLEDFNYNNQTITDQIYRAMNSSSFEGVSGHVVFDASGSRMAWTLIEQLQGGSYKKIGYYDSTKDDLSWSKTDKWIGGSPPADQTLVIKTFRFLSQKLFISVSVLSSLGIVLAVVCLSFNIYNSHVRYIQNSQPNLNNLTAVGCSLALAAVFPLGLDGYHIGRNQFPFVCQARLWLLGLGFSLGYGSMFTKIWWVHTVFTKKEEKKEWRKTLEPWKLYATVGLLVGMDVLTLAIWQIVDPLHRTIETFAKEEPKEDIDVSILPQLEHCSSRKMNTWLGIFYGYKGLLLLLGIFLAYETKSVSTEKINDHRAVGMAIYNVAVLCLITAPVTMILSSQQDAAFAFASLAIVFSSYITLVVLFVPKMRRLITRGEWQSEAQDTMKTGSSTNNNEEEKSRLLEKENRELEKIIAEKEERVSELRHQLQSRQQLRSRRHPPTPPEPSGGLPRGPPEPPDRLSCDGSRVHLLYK
Chain of GABAB receptor (O75899 42-941 partner): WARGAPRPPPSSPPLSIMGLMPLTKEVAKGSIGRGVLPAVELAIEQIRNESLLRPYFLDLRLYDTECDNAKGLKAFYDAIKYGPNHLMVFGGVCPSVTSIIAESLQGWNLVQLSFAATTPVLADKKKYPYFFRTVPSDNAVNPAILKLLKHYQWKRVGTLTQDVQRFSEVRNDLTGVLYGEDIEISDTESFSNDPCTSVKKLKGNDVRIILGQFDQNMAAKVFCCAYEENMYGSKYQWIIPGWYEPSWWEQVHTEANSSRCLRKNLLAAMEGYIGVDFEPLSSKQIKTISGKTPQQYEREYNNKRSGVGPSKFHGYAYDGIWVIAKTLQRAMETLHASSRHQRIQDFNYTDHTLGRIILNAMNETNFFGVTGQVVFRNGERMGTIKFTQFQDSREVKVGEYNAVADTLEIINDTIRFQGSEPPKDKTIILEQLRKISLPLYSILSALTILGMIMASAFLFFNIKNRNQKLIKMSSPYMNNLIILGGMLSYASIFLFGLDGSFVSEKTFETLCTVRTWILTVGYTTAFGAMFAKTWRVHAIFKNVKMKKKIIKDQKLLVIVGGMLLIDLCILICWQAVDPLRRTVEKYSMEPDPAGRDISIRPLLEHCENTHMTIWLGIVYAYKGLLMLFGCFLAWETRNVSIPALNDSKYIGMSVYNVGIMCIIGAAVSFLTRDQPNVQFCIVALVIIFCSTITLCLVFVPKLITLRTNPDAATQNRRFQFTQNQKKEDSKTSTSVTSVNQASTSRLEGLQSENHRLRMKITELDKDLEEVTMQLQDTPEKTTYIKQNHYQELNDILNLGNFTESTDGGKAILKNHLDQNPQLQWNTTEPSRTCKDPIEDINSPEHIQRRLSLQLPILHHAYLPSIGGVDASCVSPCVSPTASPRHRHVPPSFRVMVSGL

Consider `O=C(O)CCC(O)Cc1ccc(Cl)cc1` (stereo not shown) [4-(p-chlorobenzyl)-GHB], for which, in the data set on GHB receptor, the convulsions in animals entry is reported as “cause convulsions in animals” and the GHB-appropriate responding result is reported as “do not produce GHB-appropriate responding”.

For `O=C(O)CCCO` [GHB, 4-hydroxybutanoic acid], the “affinity for GABAB receptor” value on GABAB receptor was “relatively weak affinity”. The “duration of the effects” value in data set [1] is reported as “about four”.

For the compound `O=C([O-])CCCO.[Na+]` [sodium GHB], the bioavailability entry in data set [2] is listed as “considerably reduced”. Moreover, the “amount of sodium GHB that can be dissolved” value in data set [3] was “More than 1 g”.

On to `O=C(O)/C=C/CO` [trans-4-hydroxycrotonic acid], for which the GHB-appropriate responding result in the data set with GHB receptor is “do not produce GHB-appropriate responding”.
